In publication PMC11995724, “Antibiotic target discovery by integrated phenotypic and activity-based profiling of electrophilic fragments” (Cell chemical biology, 2025):

Experiment: in vitro
Conditions: human, hek293t cells

## C=CC(=O)N(C)CC(=O)NCc1nc2cc(C)ccc2n1C [2-B14, N-({[(1,5-dimethyl-1H-1,3-benzodiazol-2-yl)methyl]carbamoyl}methyl)-N-methylprop-2-enamide]
  viability at 48 h, 25 µM: 37.9%

## C=CC(=O)NCC1CCCc2nccn21 (centres unmarked) [2-B15, N-({5H,6H,7H,8H-imidazo[1,2-a]pyridin-5-yl}methyl)prop-2-enamide]
  viability at 48 h, 25 µM: 76.8%

## C=CC(=O)N1CCC(C(=O)N[C@@H](C)C(=O)NC)(c2ccccc2)CC1 [2-B16, (2S)-N-methyl-2-{[4-phenyl-1-(prop-2-enoyl)piperidin-4-yl]formamido}propanamide]
  viability at 48 h, 25 µM: 87%

## C=CC(=O)NCc1ccnc(OC2CCOCC2)c1 [2-B17, N-{[2-(oxan-4-yloxy)pyridin-4-yl]methyl}prop-2-enamide]
  viability at 48 h, 25 µM: 69.9%

## C=CC(=O)N(CC)CC(=O)N1CCn2c(nc(C)c2C)C1 [2-B18, N-(2-{2,3-dimethyl-5H,6H,7H,8H-imidazo[1,2-a]pyrazin-7-yl}-2-oxoethyl)-N-ethylprop-2-enamide]
  viability at 48 h, 25 µM: 94.8%

## C=CC(=O)N(C)Cc1cc2sccc2n1C [2-B19, N-methyl-N-({4-methyl-4H-thieno[3,2-b]pyrrol-5-yl}methyl)prop-2-enamide]
  viability at 48 h, 25 µM: 75.1%

## C=CC(=O)NCc1ccc(C(=O)N2CCCCC(SC)C2)cc1 (centres unmarked) [2-B20, N-({4-[3-(methylsulfanyl)azepane-1-carbonyl]phenyl}methyl)prop-2-enamide]
  viability at 48 h, 25 µM: 57.3%

## C=CC(=O)NC(Cn1ccccc1=O)c1ccccc1 (centres unmarked) [2-B21, N-[2-(2-oxo-1,2-dihydropyridin-1-yl)-1-phenylethyl]prop-2-enamide]
  viability at 48 h, 25 µM: 72.3%

## C=CC(=O)N(C)CC(=O)N1CCC(C)(c2nc(C)no2)CC1 [2-B22, N-methyl-N-{2-[4-methyl-4-(3-methyl-1,2,4-oxadiazol-5-yl)piperidin-1-yl]-2-oxoethyl}prop-2-enamide]
  viability at 48 h, 25 µM: 57.9%

## C=CC(=O)N1CCCC(n2cncn2)C1 (centres unmarked) [2-C03, 1-[3-(1H-1,2,4-triazol-1-yl)piperidin-1-yl]prop-2-en-1-one]
  viability at 48 h, 25 µM: 90.2%

## C=CC(=O)NCCC(=O)N1CCc2ncncc2C1 [2-C04, N-(3-oxo-3-{5H,6H,7H,8H-pyrido[4,3-d]pyrimidin-6-yl}propyl)prop-2-enamide]
  viability at 48 h, 25 µM: 93.3%

## C=CC(=O)NCCN1C(=O)SC(=Cc2ccc(Cl)cc2)C1=O [2-C05, N-(2-{5-[(4-chlorophenyl)methylidene]-2,4-dioxo-1,3-thiazolidin-3-yl}ethyl)prop-2-enamide]
  viability at 48 h, 25 µM: 87.2%

## C=CC(=O)N1CCOC2(CCS(=O)(=O)C2)C1 (centres unmarked) [2-C06, 9-(prop-2-enoyl)-6-oxa-2lambda6-thia-9-azaspiro[4.5]decane-2,2-dione]
  viability at 48 h, 25 µM: 101%

## C=CC(=O)N(Cc1cc(Cl)ccc1OC)C1CCCOCC1 (centres unmarked) [2-C07, N-[(5-chloro-2-methoxyphenyl)methyl]-N-(oxepan-4-yl)prop-2-enamide]
  viability at 48 h, 25 µM: 95.3%

## C=CC(=O)Nc1ccc(S(C)(=O)=O)cc1OCC [2-C08, N-(2-ethoxy-4-methanesulfonylphenyl)prop-2-enamide]
  viability at 48 h, 25 µM: 0.998%

## C=CC(=O)NCc1csc(C(C)(C)C)n1 [2-C09, N-[(2-tert-butyl-1,3-thiazol-4-yl)methyl]prop-2-enamide]
  viability at 48 h, 25 µM: 86.1%

## C=CC(=O)N1CCOCC2(CCOCC2)C1 [2-C10, 1-{3,8-dioxa-11-azaspiro[5.6]dodecan-11-yl}prop-2-en-1-one]
  viability at 48 h, 25 µM: 85.4%

## C=CC(=O)NC(Cn1cnc2ccccc21)c1ccc(F)cc1 (centres unmarked) [2-C11, N-[2-(1H-1,3-benzodiazol-1-yl)-1-(4-fluorophenyl)ethyl]prop-2-enamide]
  viability at 48 h, 25 µM: 90.5%

## C=CC(=O)NCCC(=O)N1CCCC1c1cc(C)on1 (centres unmarked) [2-C12, N-{3-[2-(5-methyl-1,2-oxazol-3-yl)pyrrolidin-1-yl]-3-oxopropyl}prop-2-enamide]
  viability at 48 h, 25 µM: 81.3%

## C=CC(=O)N(Cc1cnn(C(C)C)c1)c1ccc2nc(C)oc2c1 [2-C13, N-(2-methyl-1,3-benzoxazol-6-yl)-N-{[1-(propan-2-yl)-1H-pyrazol-4-yl]methyl}prop-2-enamide]
  viability at 48 h, 25 µM: 185%

## C=CC(=O)NC(c1noc(O)n1)C(C)(C)C (centres unmarked) [2-C14, N-[1-(5-hydroxy-1,2,4-oxadiazol-3-yl)-2,2-dimethylpropyl]prop-2-enamide]
  viability at 48 h, 25 µM: 96.4%

## C=CC(=O)Nc1cc(C)nn1-c1ccccc1F [2-C15, N-[1-(2-fluorophenyl)-3-methyl-1H-pyrazol-5-yl]prop-2-enamide]
  viability at 48 h, 25 µM: 180%

## C=CC(=O)N1CCC(O)(C(F)(F)C(N)=O)C1 (centres unmarked) [2-C16, 2,2-difluoro-2-[3-hydroxy-1-(prop-2-enoyl)pyrrolidin-3-yl]acetamide]
  viability at 48 h, 25 µM: 98.2%

## C=CC(=O)N1CCC(Cn2nc(C)cc2C)CC1 [2-C17, 1-{4-[(3,5-dimethyl-1H-pyrazol-1-yl)methyl]piperidin-1-yl}prop-2-en-1-one]
  viability at 48 h, 25 µM: 182%

## C=CC(=O)NCc1cc(-c2ccccc2OC)no1 [2-C18, N-{[3-(2-methoxyphenyl)-1,2-oxazol-5-yl]methyl}prop-2-enamide]
  viability at 48 h, 25 µM: 72.8%

## C=CC(=O)N1CCC(Cc2ccnn2C)CC1 [2-C19, 1-{4-[(1-methyl-1H-pyrazol-5-yl)methyl]piperidin-1-yl}prop-2-en-1-one]
  viability at 48 h, 25 µM: 74.8%

## C=CC(=O)Nc1ccc(C(=O)N2CCCCC2c2noc(C)n2)cc1 (centres unmarked) [2-C20, N-{4-[2-(5-methyl-1,2,4-oxadiazol-3-yl)piperidine-1-carbonyl]phenyl}prop-2-enamide]
  viability at 48 h, 25 µM: 77.3%

## C=CC(=O)N1CCCC1c1nc(N(C)C)no1 (centres unmarked) [2-C21, 1-{2-[3-(dimethylamino)-1,2,4-oxadiazol-5-yl]pyrrolidin-1-yl}prop-2-en-1-one]
  viability at 48 h, 25 µM: 191%

## C=CC(=O)Nc1cc(C(=O)CC)ccc1F [2-C22, N-(2-fluoro-5-propanoylphenyl)prop-2-enamide]
  viability at 48 h, 25 µM: 84.8%

## C=CC(=O)NCC(C)Cn1ccc(C)n1 (centres unmarked) [2-D03, N-[2-methyl-3-(3-methyl-1H-pyrazol-1-yl)propyl]prop-2-enamide]
  viability at 48 h, 25 µM: 99.9%

## C=CC(=O)N1CCC(C(=O)NCCc2c(C)n[nH]c2C)CC1 [2-D04, N-[2-(3,5-dimethyl-1H-pyrazol-4-yl)ethyl]-1-(prop-2-enoyl)piperidine-4-carboxamide]
  viability at 48 h, 25 µM: 88.7%

## C=CC(=O)NCCc1nc(C)cs1 [2-D05, N-[2-(4-methyl-1,3-thiazol-2-yl)ethyl]prop-2-enamide]
  viability at 48 h, 25 µM: 70.3%

## C=CC(=O)N1CCC(C(=O)N(C)Cc2ccc([S+](C)[O-])cc2)CC1 (centres unmarked) [2-D06, N-[(4-methanesulfinylphenyl)methyl]-N-methyl-1-(prop-2-enoyl)piperidine-4-carboxamide]
  viability at 48 h, 25 µM: 76.4%

## C=CC(=O)NC1(c2nccc(C(F)(F)F)n2)CC1 [2-D07, N-{1-[4-(trifluoromethyl)pyrimidin-2-yl]cyclopropyl}prop-2-enamide]
  viability at 48 h, 25 µM: 74.9%

## C=CC(=O)N1CCC(C(=O)Nc2ccc(N(C)C(C)=O)cc2)CC1 [2-D08, N-[4-(N-methylacetamido)phenyl]-1-(prop-2-enoyl)piperidine-4-carboxamide]
  viability at 48 h, 25 µM: 81.5%

## C=CC(=O)N(C)Cc1cncn1C [2-D09, N-methyl-N-[(1-methyl-1H-imidazol-5-yl)methyl]prop-2-enamide]
  viability at 48 h, 25 µM: 61.2%

## C=CC(=O)N1CCC(C(=O)N2CCC(C(=O)NC3CC3)CC2)CC1 [2-D10, N-cyclopropyl-1-[1-(prop-2-enoyl)piperidine-4-carbonyl]piperidine-4-carboxamide]
  viability at 48 h, 25 µM: 76.9%

## C=CC(=O)NCc1cnc2ccsc2c1 [2-D11, N-({thieno[3,2-b]pyridin-6-yl}methyl)prop-2-enamide]
  viability at 48 h, 25 µM: 74.3%

## C=CC(=O)N1CCC(C(=O)N2CCC[C@H]2c2ncn[nH]2)CC1 [2-D12, 1-{4-[(2S)-2-(1H-1,2,4-triazol-5-yl)pyrrolidine-1-carbonyl]piperidin-1-yl}prop-2-en-1-one]
  viability at 48 h, 25 µM: 81.3%

## C=CC(=O)N(Cc1cn(CC)nc1C)C1CC1 [2-D13, N-cyclopropyl-N-[(1-ethyl-3-methyl-1H-pyrazol-4-yl)methyl]prop-2-enamide]
  viability at 48 h, 25 µM: 76.3%

## C=CC(=O)N1CCC(C(=O)NCC(C)(C)C2(O)CCCC2)CC1 [2-D14, N-[2-(1-hydroxycyclopentyl)-2-methylpropyl]-1-(prop-2-enoyl)piperidine-4-carboxamide]
  viability at 48 h, 25 µM: 76.9%

## C=CC(=O)NC1(C(N)=O)Cc2ccccc2C1 [2-D15, 2-(prop-2-enamido)-2,3-dihydro-1H-indene-2-carboxamide]
  viability at 48 h, 25 µM: 69.7%

## C=CC(=O)Nc1ccc(C(=O)N2CCC3(CC2)OCCCO3)cc1 [2-D16, N-(4-{1,5-dioxa-9-azaspiro[5.5]undecane-9-carbonyl}phenyl)prop-2-enamide]
  viability at 48 h, 25 µM: 49.1%

## C=CC(=O)NC(CO)c1ccnn1C (centres unmarked) [2-D17, N-[2-hydroxy-1-(1-methyl-1H-pyrazol-5-yl)ethyl]prop-2-enamide]
  viability at 48 h, 25 µM: 45.9%

## C=CC(=O)N1CCC(C(=O)NCC2([S+](C)[O-])CCC2)CC1 (centres unmarked) [2-D18, N-[(1-methanesulfinylcyclobutyl)methyl]-1-(prop-2-enoyl)piperidine-4-carboxamide]
  viability at 48 h, 25 µM: 73.4%

## C=CC(=O)N(C)Cc1ncc(C(F)(F)F)n1C [2-D19, N-methyl-N-{[1-methyl-5-(trifluoromethyl)-1H-imidazol-2-yl]methyl}prop-2-enamide]
  viability at 48 h, 25 µM: 70.6%

## C=CC(=O)NCCC(=O)N1CCCN(C(=O)c2ccccc2F)CC1 [2-D20, N-{3-[4-(2-fluorobenzoyl)-1,4-diazepan-1-yl]-3-oxopropyl}prop-2-enamide]
  viability at 48 h, 25 µM: 93.7%

## C=CC(=O)NCc1ncccc1S(C)(=O)=O [2-D21, N-[(3-methanesulfonylpyridin-2-yl)methyl]prop-2-enamide]
  viability at 48 h, 25 µM: 80%

## C=CC(=O)NCc1ccc(C(=O)N2CCCC2C(=O)N(C)C)cc1 (centres unmarked) [2-D22, N,N-dimethyl-1-{4-[(prop-2-enamido)methyl]benzoyl}pyrrolidine-2-carboxamide]
  viability at 48 h, 25 µM: 71.2%

## C=CC(=O)NCC1CC(CC(=O)O)CO1 (centres unmarked) [2-E03, 2-{5-[(prop-2-enamido)methyl]oxolan-3-yl}acetic acid]
  viability at 48 h, 25 µM: 182%
